{"source": "patent US20220079966A1", "about": "“HYALURONAN SYNTHESIS INHIBITION FOR TREATING AUTOIMMUNE, INFLAMMATORY, FIBROTIC, OR PROLIFERATIVE DISEASES OR DISORDERS” (The Board of Trustees of the Leland Stanford Junior …, priority 2018, published 2022)", "key": {"[1]": {"conditions": "cited from earlier work"}, "db/db mice": {"tested_on": "db/db mice", "assay": "db/db mouse model of type 2 diabetes", "type": "in vivo", "conditions": "for body weight of db/db mice: after start of treatment; for intra-peritoneal glucose tolerance testing (IPGTT): fasting db/db mice fed drug for previous 2 weeks; for HA staining in pancreatic islets of db/db mice: mouse, in vivo; for blood glucose (BG) levels in db/db mice: over one month, 4-MU chow or 4-MUG in drinking water vs control chow", "description": "All animals were bred and maintained under specific pathogen-free conditions, with free access to food and water, in the animal facilities at Stanford University Medical School (Stanford, Calif.). B6 db/db LeptR−/− mice were purchased from Jackson Laboratories (JAX) as well as DO11.10 transgenic mice. The DO11.10 mice were bred with Balb/c mice expressing RIPmOva (ovalbumin peptide amino acids 323-339; available at the Benaroya Research Institute) to generate the DORmO double-transgenic mice. In addition, C57Bl/6J mice were bred in-house at Stanford University School of Medicine.\nBeginning at four weeks of age, mice were weighed weekly as well as bled via the tail vein for the determination of their blood glucose level using a Contour® blood glucose meter and blood glucose monitoring strips (Bayer Healthcare). When two consecutive blood glucose readings of 250 mg/dL were recorded, animals were considered diabetic. When two consecutive blood glucose readings of 300 mg/dL were recorded, animals were euthanized.\nThe 4-MU (Alfa Aesar) was pressed into mouse chow (TestDiet, St. Louis, Mo.) and irradiated before shipment, as previously described (Nagy N., et al., Circulation. 2010; 122(22):2313-2322). This chow formulation delivers 250 mg/mouse/day, yielding a serum drug concentration of 640.3±17.2 nmol/L in mice, as measured by HPLC-MS. 4-MUG (ChemImpex, Wood Dale, Ill.) was distributed in the drinking water at a concentration of 2 mg/ml, delivering 10 mg/mouse/day, yielding a serum drug concentration of 357.1±72.6 ng/mL in mice, as measured by LC-MS/MS. Mice were initiated on 4-MU and 4-MUG at five, eight or twelve weeks of age, unless otherwise noted, and were maintained on this diet until they were euthanized, unless otherwise noted. For analysis of Foxp3+ regulatory T-cell numbers in naïve mice, mice were treated daily with 0.5 mg of 4-MU or 1.0 mg 4-MUG in 200 μl 0.08% carboxymethylcellulose in saline by intra-peritoneal injection.\nTo assess whether 4-MUG is effective against HA synthesis in a different inflammatory disease that is non-autoimmune in nature, the role of 4-MUG in the db/db model of type 2 diabetes was investigated. db/db mice lack a functional leptin receptor and are obese and diabetic.\nReferring to FIG. 7D, the beneficial effect of 4-MU and 4-MUG on glycemic control was maintained for at least 10 weeks, indicating a lasting improvement. FIGS. 7F and 7G show intra-peritoneal glucose tolerance testing (IPGTT) of fasting db/db mice fed 4-MU or 4-MUG for 2 weeks."}, "DORmO mice": {"tested_on": "DORmO mice", "assay": "DORmO mouse model of type 1 diabetes", "type": "in vivo", "conditions": "for HA accumulation in DORmO pancreatic islets (HA staining): 12 weeks of age, compared to untreated DORmO mice; for onset / progression of T1D as measured by blood glucose over time: fed from 5 weeks of age for 15 weeks", "description": "10×RIPmOVA (DORmO) mouse. DORmO mice carry a T-cell receptor transgene specific for OVA (emulating autoreactive CD4+ T-cells), while simultaneously expressing OVA in conjunction with the insulin gene promoter on pancreatic beta cells (emulating the autoantigen). All animals were bred and maintained under specific pathogen-free conditions, with free access to food and water, in the animal facilities at Stanford University Medical School (Stanford, Calif.). B6 db/db LeptR-/- mice were purchased from Jackson Laboratories (JAX) as well as DO11.10 transgenic mice. The DO11.10 mice were bred with Balb/c mice expressing RIPmOva (ovalbumin peptide amino acids 323-339; available at the Benaroya Research Institute) to generate the DORmO double-transgenic mice. In addition, C57Bl/6J mice were bred in-house at Stanford University School of Medicine. Beginning at four weeks of age, mice were weighed weekly as well as bled via the tail vein for the determination of their blood glucose level using a Contour® blood glucose meter and blood glucose monitoring strips (Bayer Healthcare). When two consecutive blood glucose readings of 250 mg/dL were recorded, animals were considered diabetic. When two consecutive blood glucose readings of 300 mg/dL were recorded, animals were euthanized. The 4-MU (Alfa Aesar) was pressed into mouse chow (TestDiet, St. Louis, Mo.) and irradiated before shipment, as previously described (Nagy N., et al., Circulation. 2010; 122(22):2313-2322). This chow formulation delivers 250 mg/mouse/day, yielding a serum drug concentration of 640.3±17.2 nmol/L in mice, as measured by HPLC-MS. 4-MUG ([…], Wood Dale, Ill.) was distributed in the drinking water at a concentration of 2 mg/ml, delivering 10 mg/mouse/day, yielding a serum drug concentration of 357.1±72.6 ng/mL in mice, as measured by LC-MS/MS. Mice were initiated on 4-MU and 4-MUG at five, eight or twelve weeks of age, unless otherwise noted, and were maintained on this diet until they were euthanized, unless otherwise noted. For analysis of Foxp3+ regulatory T-cell numbers in naïve mice, mice were treated daily with 0.5 mg of 4-MU or 1.0 mg 4-MUG in 200 μl 0.08% carboxymethylcellulose in saline by intra-peritoneal injection. Tissues for histochemistry were extracted from the animals and immediately transferred into 10% neutral buffered formalin (NBF). The tissue was processed to paraffin on a Leica ASP300 Tissue Processor (Leica Microsystems Inc.). Then 5 μm thick sections were cut on a Leica RM 2255 Microtomes (Leica Microsystems Inc.). All staining steps were performed on a Leica Bond-MaxTM automated immune histochemistry (IHC) stainer (Leica Microsystems Inc.). For HA affinity histochemistry (AFC) the BondTM Intense R Detection kit, a streptavidin-HRP system, (Leica Microsystems, Inc.) was used with 4 μg/mL biotinylated-HABP in 0.1% BSA-PBS as the primary. The BondTM Polymer Detection Kit was used for all other immunohistochemistry. This detection kit contains a goat anti-rabbit conjugated to polymeric HRP and a rabbit anti-mouse post primary reagent for use with mouse primaries. For Foxp3 and insulin (anti-insulin, ab7842 abcam) sections were incubated 60 min with 8 μg/mL rat anti-Foxp3 clone FJK-16s (eBioscience). Incubation with rabbit anti rat IgG (Vector Labs), post-primary was added in lieu of the post-primary reagent from the kit."}}}
{"compound": "Cc1cc(=O)oc2cc(O)ccc12", "note": "[4-MU, 4-methylumbelliferone]", "values": [{"measurement": "half-life", "setting": "[1]; in mice", "result": 3, "unit": "min"}, {"measurement": "body weight of db/db mice", "setting": "db/db mice", "result": "initial decrease in weight"}, {"measurement": "intra-peritoneal glucose tolerance testing (IPGTT)", "setting": "db/db mice", "result": "improvement in glycemic control"}, {"measurement": "HA staining in pancreatic islets of db/db mice", "setting": "db/db mice", "result": "reduced HA staining"}, {"measurement": "blood glucose (BG) levels in db/db mice", "setting": "db/db mice", "result": "reliably decreased blood glucose"}, {"measurement": "HA accumulation in DORmO pancreatic islets (HA staining)", "setting": "DORmO mice", "result": "decrease of HA accumulation"}, {"measurement": "insulin positive cells in pancreatic islets", "setting": "DORmO mice; DORmO mice", "result": "insulin positive cells were preserved"}, {"measurement": "onset / progression of T1D as measured by blood glucose over time", "setting": "DORmO mice", "result": "sufficient to stop diabetes progression"}, {"measurement": "Foxp3 regulatory T-cells in pancreatic islets (FoxP3 staining)", "setting": "DORmO mice; non-diabetic treated DORmO mice", "result": "increase of Foxp3 regulatory T-cells"}]}
{"compound": "Cc1cc(=O)oc2cc(O[C@@H]3O[C@H](C(=O)O)[C@@H](O)[C@H](O)[C@H]3O)ccc12", "note": "[4-MUG, 4-methylumbelliferone-glucuronide]", "values": [{"measurement": "concentration of 4-MUG relative to parent molecule 4-MU", "setting": "[1]; animal studies", "result": 300, "unit": "fold"}, {"measurement": "median plasma concentration of 4-MUG relative to 4-MU", "setting": "[1]; mouse models", "result": "more than 3,000 fold"}, {"measurement": "body weight of db/db mice", "setting": "db/db mice", "result": "soon recovered"}, {"measurement": "intra-peritoneal glucose tolerance testing (IPGTT)", "setting": "db/db mice", "result": "improvement in glycemic control"}, {"measurement": "HA staining in pancreatic islets of db/db mice", "setting": "db/db mice", "result": "reduced HA staining"}, {"measurement": "blood glucose (BG) levels in db/db mice", "setting": "db/db mice", "result": "reliably decreased blood glucose"}, {"measurement": "HA accumulation in DORmO pancreatic islets (HA staining)", "setting": "DORmO mice", "result": "decrease of HA accumulation"}, {"measurement": "onset / progression of T1D as measured by blood glucose over time", "setting": "DORmO mice", "result": "delayed the onset of T1D"}]}
